From patent publication US8466289B2, “Heterocyclic sulfonamide derivatives” (Novartis AG, priority 2009, dated 2013)

Assays:
A375 cells = test: cell viability assay in A375 cells using XTT; format: cell-based; settings: Homo sapiens, A-375, 72 h, XTT read three days after compound addition
Protocol: The cell viability assay in A375 cells is set up in a 96-well plate format using XTT.
XTT is a yellow tetrazolium salt that is cleaved to an orange formazan dye by the mitochondria of metabolically active cells. The procedure allows for rapid determination in a microtitre plate, to give reproducible and sensitive results.
A375 cells are grown in DMEM media containing 10% FBS and 1 mM sodium pyruvate. Cells are trypsinized and seeded at 1000 cells/well. After allowing the cells to adhere overnight, compound is added to the wells at the following final concentrations: 10, 3, 1, 0.3, 0.1, 0.03, 0.01, 0.001, and 0.0001 μM. The assay is set up in triplicates for each concentration. DMSO concentrations are kept at 0.5%/well. Three days after compound addition, the XTT assay is performed. Wells are washed once with PBS. 100 μL of DMEM media without phenol red or FBS is added to each well. A working solution of XTT containing 1 mg/ml XTT and 100 μL of PMS (stock concentration 0.383 mg/ml) per 5 ml is prepared. 50 μL of the working solution of XTT is added to each well. Absorbance of the plate is read at 465 nm using a Spectramax 190 (Molecular Devices). The absorbance from wells with media and XTT alone, but without cells is considered the blank and subtracted from readings from all wells.
Percentage viability is calculated considering the blank subtracted value from wells treated with DMSO alone as 100% viable. GI50 values are calculated using Graphpad Prism, using non-linear regression curve fit for sigmoidal dose response (variable slope).
The cell viability assay is further described in Scudiero, et. al., Cancer Research (1988) 48, 4827-4833; Weislow, et. al., J. Natl. Cancer Institute, (1989) 81, 577-586; and Roehm, et. al., J. Immunol. Methods [1991]142:257-265.
(§1) The compounds of the above Examples were evaluated as inhibitors of the MAP kinase pathway in a BRAF-MEK-ERK enzymatic cascade assay and in the cell viability assay described above.

[1] = tested on: BRAF-MEK-ERK cascade (activated BRAF (V599E), unactive MEK1, unactive MAP Kinase 2/ERK2); test: BRAF-MEK-ERK enzymatic cascade assay (TR-FRET); format: biochemical, human; settings: compounds screened at 10 μM, 45 minutes pre-incubation with enzymes, 100 μM ATP
From the text: A BRAF-MEK-ERK cascade assay is used to evaluate the effects of the compounds as inhibitors of the MAP kinase pathway. An enzymatic cascade assay is set up using recombinant human activated BRAF (V599E) kinase (Cat No. 14-557), human full length unactive MEK1 kinase (Cat No. 14-706) and human full length unactive MAP Kinase 2/ERK2 (Cat No. 14-536) enzymes procured from Upstate. TR-FRET (Time resolved fluorescence resonance energy transfer) detection technology is used for the read out. The assay buffer solution contains 50 mM Tris pH 7.5, 10 mM MgCl2, 1 mM DTT, 0.01% Tween 20, 0.1 nM activated BRAF, 2 nM unactive MEK1, 10 nM unactive ERK2, 100 μM ATP and 500 nM long chain biotin-peptide substrate (LCB-FFKNIVTPRTPPP) in a 384 well format. The kinase reaction is stopped after 90 minutes with 10 mM EDTA and Lance detection mix (2 nM Eu-labeled phospho-serine/threonine antibody (Cat. No. AD0176-Perkin Elmer), 20 nM SA-APC (Cat No. CR130-100-Perkin Elmer) is added. The TR-FRET signal (Excitation at 340 nm, Emission at 615 nm and 665 nm) is read with 50 μs delay time on a Victor3 V fluorimeter. The data is calculated using the ratio of readings at 665 nm to 615 nm. The final concentration of DMSO is 2.5% in the assay. Compounds are screened at 10 μM concentration with pre-incubation of the enzymes in the presence of test compound for 45 minutes.
Each individual IC50 is determined using a 10 point dose response curve generated by GraphPad Prism software Version 4 (San Diego, Calif., USA) using non linear regression curve fit for sigmoidal dose response (variable slope).
These assays described above are fully detailed in Han, Shulin, et. al., Bioorganic & Medicinal Chemistry Letters (2005) 15, 5467-5473, and in Yeh, et. al., Clin Cancer Res (2007) 13 (5), 1576-1583.
as §1

| SMILES | GI50 (A375 cells) | % inhibition [1] |
| --- | --- | --- |
| Cc1c(Nc2ccc(Br)cc2F)c(NS(=O)(=O)C2(CC(O)CO)CC2)c2n(c1=O)CCN2 (centres unmarked) [Example 4A, 1-(2,3-Dihydroxy-propyl)-cyclopropanesulfonic acid [7-(4-bromo-2-fluoro-phenylamino)-6-methyl-5-oxo-1,2,3,5-tetrahydro-imidazo[1,2-a]pyridin-8-yl]-amide] | 2.88 µM | 100% |
| Cc1c(Nc2ccc(I)cc2F)c(NS(=O)(=O)C2CCCC2)c2n(c1=O)CCS2 [Example 24A, Cyclopentanesulfonic acid [7-(2-fluoro-4-iodo-phenylamino)-6-methyl-5-oxo-2,3-dihydro-5H-thiazolo[3,2-a]pyridin-8-yl]-amide] | 0.192 µM | 100% |
| Cc1c(Nc2ccc(Br)cc2F)c(NS(=O)(=O)C2CC2)c2n(c1=O)CCN2 [Example 2A, Cyclopropanesulfonic acid [7-(4-bromo-2-fluoro-phenylamino)-6-methyl-5-oxo-1,2,3,5-tetrahydro-imidazo[1,2-a]pyridin-8-yl]-amide] | 0.8 µM | 100% |
| Cc1c(Nc2ccc(I)cc2F)c(NS(=O)(=O)C2CC2)c2n(c1=O)CCS2 [Example 19A, Cyclopropanesulfonic acid [7-(2-fluoro-4-iodo-phenylamino)-6-methyl-5-oxo-2,3-dihydro-5H-thiazolo[3,2-a]pyridin-8-yl]-amide] | 0.0003 µM | 100% |
| Cc1c(Nc2ccc(I)cc2F)c(NS(=O)(=O)C2CCC2)c2n(c1=O)CCS2 [Example 26A, Cyclobutanesulfonic acid [7-(2-fluoro-4-iodo-phenylamino)-6-methyl-5-oxo-2,3-dihydro-5H-thiazolo[3,2-a]pyridin-8-yl]-amide] | 0.156 µM | 100% |
| Cc1c(Nc2ccc(I)cc2F)c(NS(=O)(=O)C2CC2)c2n(c1=O)CCN2 [Example 3A, Cyclopropanesulfonic acid [7-(2-fluoro-4-iodo-phenylamino)-6-methyl-5-oxo-1,2,3,5-tetrahydro-imidazo[1,2-a]pyridin-8-yl]-amide] | 0.019 µM | 100% |
| Cc1c(Nc2ccc(Br)cc2F)c(NS(=O)(=O)C2CC2)c2n(c1=O)CCN2Cc1ccccc1 [Example 1A, Cyclopropanesulfonic acid [1-benzyl-7-(4-bromo-2-fluoro-phenylamino)-6-methyl-5-oxo-1,2,3,5-tetrahydro-imidazo[1,2-a]pyridin-8-yl]-amide] | – | 70% |
| Cc1c(Nc2ccc(I)cc2F)c(NS(=O)(=O)C2CC(O)C2)c2n(c1=O)CCS2 (centres unmarked) [Example 25A, 3-Hydroxy-cyclobutanesulfonic acid [7-(2-fluoro-4-iodo-phenylamino)-6-methyl-5-oxo-2,3-dihydro-5H-thiazolo[3,2-a]pyridin-8-yl]-amide] | 0.922 µM | 100% |

Other lines, results leading:

| GI50 (A375 cells) | % inhibition [1] | SMILES |
| --- | --- | --- |
| 0.061 µM | 97% | Cc1c(Nc2ccc(I)cc2F)c(NS(=O)(=O)C2(CO)CC2)c2n(c1=O)CCS2 [Example 22A, 1-Hydroxymethyl-cyclopropanesulfonic acid [7-(2-fluoro-4-iodo-phenylamino)-6-methyl-5-oxo-2,3-dihydro-5H-thiazolo[3,2-a]pyridin-8-yl]-amide] |
| 4.26 µM | 100% | Cc1c(Nc2ccc(I)cc2F)c(NS(=O)(=O)CCC(CO)CO)c2n(c1=O)CCO2 [Example 18A, N-(7-(2-fluoro-4-iodophenylamino)-6-methyl-5-oxo-3,5-dihydro-2H-oxazolo[3,2-a]pyridin-8-yl)-4-hydroxy-3-(hydroxymethyl)butane-1-sulfonamide] |
| 0.02 µM | 100% | Cc1c(Nc2ccc(I)cc2F)c(NS(=O)(=O)C2(CO)CC2)c2n(c1=O)CCO2 [Example 11A, 1-Hydroxymethyl-cyclopropanesulfonic acid [7-(2-fluoro-4-iodo-phenylamino)-6-methyl-5-oxo-2,3-dihydro-5H-oxazolo[3,2-a]pyridin-8-yl]-amide] |
| 0.026 µM | 99% | Cc1c(Nc2ccc(I)cc2F)c(NS(=O)(=O)C2CC2)c2n(c1=O)CCO2 [Example 7A, Cyclopropanesulfonic acid [7-(2-fluoro-4-iodo-phenylamino)-6-methyl-5-oxo-2,3-dihydro-5H-oxazolo[3,2-a]pyridin-8-yl]-amide] |
| 1.3 µM | 100% | Cc1c(Nc2ccc(I)cc2F)c(NS(=O)(=O)CC2(C)COC2)c2n(c1=O)CCO2 [Example 16A, N-(7-(2-fluoro-4-iodophenylamino)-6-methyl-5-oxo-3,5-dihydro-2H-oxazolo[3,2-a]pyridin-8-yl)-1-(3-methyloxetan-3-yl)methanesulfonamide] |
| 0.122 µM | 100% | Cc1c(Nc2ccc(I)cc2F)c(NS(=O)(=O)C2CC2CO)c2n(c1=O)CCO2 (centres unmarked) [Example 8A, 2-Hydroxymethyl-cyclopropanesulfonic acid [7-(2-fluoro-4-iodo-phenylamino)-6-methyl-5-oxo-2,3-dihydro-5H-oxazolo[3,2-a]pyridin-8-yl]-amide] |
| 0.107 µM | 100% | Cc1c(Nc2ccc(I)cc2F)c(NS(=O)(=O)N(C)C)c2n(c1=O)CCS2 [Example 23A, N-[7-(2-Fluoro-4-iodo-phenylamino)-6-methyl-5-oxo-2,3-dihydro-5H-thiazolo[3,2-a]pyridin-8-yl]-dimethylaminosulfonamide] |
| 0.293 µM | 100% | Cc1c(Nc2ccc(I)cc2F)c(NS(=O)(=O)C2(CC(O)CO)CC2)c2n(c1=O)CCN2 (centres unmarked) [Example 5A, 1-(2,3-Dihydroxy-propyl)-cyclopropanesulfonic acid [7-(2-fluoro-4-iodo-phenylamino)-6-methyl-5-oxo-1,2,3,5-tetrahydro-imidazo[1,2-a]pyridin-8-yl]-amide] |
| 0.054 µM | 100% | Cc1c(Nc2ccc(I)cc2F)c(NS(=O)(=O)C2(CC(O)CO)CC2)c2n(c1=O)CCS2 (centres unmarked) [Example 20A, 1-(2,3-Dihydroxy-propyl)-cyclopropanesulfonic acid [7-(2-fluoro-4-iodo-phenylamino)-6-methyl-5-oxo-2,3-dihydro-5H-thiazolo[3,2-a]pyridin-8-yl]-amide] |
| 0.122 µM | 100% | Cc1c(Nc2ccc(I)cc2F)c(NS(=O)(=O)C2CC(O)C2)c2n(c1=O)CCO2 (centres unmarked) [Example 13A, 3-Hydroxy-cyclobutanesulfonic acid [7-(2-fluoro-4-iodo-phenylamino)-6-methyl-5-oxo-2,3-dihydro-5H-oxazolo[3,2-a]pyridin-8-yl]-amide] |
| 1.73 µM | – | Cc1c(Nc2ccc(I)cc2F)c(NS(=O)(=O)CCC2COC2)c2n(c1=O)CCO2 [Example 17A, N-(7-(2-fluoro-4-iodophenylamino)-6-methyl-5-oxo-3,5-dihydro-2H-oxazolo[3,2-a]pyridin-8-yl)-2-(oxetan-3-yl)ethanesulfonamide] |
| 0.033 µM | 100% | Cc1c(Nc2ccc(I)cc2F)c(NS(=O)(=O)C2(CC(O)CO)CC2)c2n(c1=O)CCO2 (centres unmarked) [Example 10A, 1-(2,3-Dihydroxy-propyl)-cyclopropanesulfonic acid [7-(2-fluoro-4-iodo-phenylamino)-6-methyl-5-oxo-2,3-dihydro-5H-oxazolo[3,2-a]pyridin-8-yl]-amide] |
